{"source": "patent US7385103B2", "about": "“Animal model, cells, and treatment for malignant melanoma” (Rutgers, the State University, priority 2004, dated 2008)", "molecules": {"B1": {"name": "siRNA: siRNA specific for Grm1 nucleic acid, templates SEQ ID NO:3 (top strand) and SEQ ID NO:4 (bottom strand) (nucleic acid)", "sense": "GATCCCGTGGACGGAGATGTCATCATTTCAAGAGAATGATGACATCTCCGTCCATTTTTTGGAAA", "antisense": "GCTTTTCCAAAAAATGGACGGAGATGTCATCATTCTCTTGAAATGATGACATCTCCGTCCACGG", "modifications": "expressed or natural sequence; the letters are possibly those of the target site"}}, "key": {"[1]": {"tested_on": "Grm1-mediated ERK1/2 activation", "assay": "ERK1/2 phosphorylation in melanoma cells, western blot with phospho-ERK1/2 antibodies", "format": "cell-based, mouse", "conditions": "for phosphorylation of ERK1/2: 10^−5 M", "description": "To examine whether ERK1/2 were activated after Grm1 activation, cells were treated for the indicated times with the agonist Quisqualate. After treatment, melanoma cells were lysed and the activation of ERK1/2 was determined using antibodies against the phosphorylated forms of ERK1/2.\nMelanoma cells lines were transiently transfected with dominant-negative mutants of Grm1 and expression of the Grm1 mutants was analyzed by western blot analysis.\nUpon IP3 accumulation in cells, calcium is released from the endoplasmic reticulum to the cytoplasm, allowing these ions to act as second messengers that bind to calmodulin and further activate calcium-calmodulin-dependent kinases that are capable of activating mitogen-activated protein kinases (MAPKS) (Soderling (1999) Trends Biochem. Sci. 24(6):232-6). Accordingly, it was determined whether IP3 accumulation in the tumor cell lines disclosed herein, upon Grm1 agonist treatment, would yield intracellular calcium signaling that could affect ERK activation. Depletion of intracellular calcium in these cells was obtained by chelating extracellular calcium with EGTA, which obligates calcium to exit the cell in order to maintain calcium homeostasis.\nPIP2 hydrolysis resulting from Grm1 activation leads to the production of IP3 and DAG. DAG can then activate protein kinase C (PKC). […] Thus, it was determined whether the activation of ERK1/2 by Grm1 is also mediated by PKC in the tumor cell lines disclosed herein.\nTo have a minimum amount of the natural ligand (glutamate) present in the growth medium, customized glutamine- and glutamate-free RPMI (RPMI-glu) was used (INVITROGEN™, Carlsbad, Calif.). GLUTAMAX™ (INVITROGEN™), a substitute for glutamate and glutamine, was added to the growth medium at a final concentration of 2 mM, and 10% dialyzed fetal calf serum (INVITROGEN™) was used to supplement the medium. For induction with Grm1 agonist, quisqualate, the cells were grown in RPMI-glu for 3-4 days, plated at 3×10^5 cells per 60-mm plate and serum starved overnight. Several concentrations of quisqualate (10^−4 M to 10^−6 M) and several time points (30 seconds to 120 minutes) were tested for optimal induction. For Grm1 antagonist effects, cells were pretreated for 30 minutes with 10^−5 M of LY367385 before agonist treatment. For PKC inhibitor (RO-31-8220) and calcium chelators (EGTA, BAPTA-AM), cells were pretreated for indicated times before agonist challenge.\nProteins were extracted using lysis buffer (50 mM Tris-HCl, 150 mM NaCl, 1 mM EDTA, 1% NP-40, 5% glycerol, and 1 mM dithiothreitol, pH 7.4) and protease inhibitors (Complete protease inhibitor cocktail tablets, Roche Molecular Biochemicals, Indianapolis, Ind.). Protein concentrations were measured using the BIO-RAD® DC Protein Assay kit (Bio-Rad, Hercules, Calif.). Equal amounts of lysates were loaded in each lane in 7.5 or 10% polyacrylamide gels (BIO-RAD®, Hercules, Calif.). Proteins were transferred to nitrocellulose membranes (Osmonics, Minnetonka, Minn.). Ponceau Red staining of membranes, after transfer, was performed to verify equivalent amounts of protein between samples. Anti-PERK, ERK, PhosphoPKC isoforms, PKC isoforms antibodies were obtained from Cell Signaling Technology, Inc. (Beverly, Mass.)."}, "melanoma cell lines": {"tested_on": "melanoma cell lines", "assay": "establishment of melanoma cell lines from amelanotic ear tumors in culture", "format": "cell-based, mouse", "description": "To further analyze the signaling events mediated by Grm1 in transformed melanocytes, cell lines derived from ear tumor bearing albino mice (Cohen-Salal, et al. (2001) supra) were generated. Tumors from these mice were sectioned in two halves. Protein extraction was performed on one part of the tumors and western immunoblots were done to verify the ectopic expression of Grm1. The other half of the tumor was used to generate homogeneous in vitro melanoma cell lines by gentle selection of melanocyte cells over keratinocytes and fibroblasts through differential geneticin resistance. Initial efforts to directly establish cell lines on standard culture medium supplemented with geneticin were unsuccessful. […] Based on morphology and growth rate, 10^−5 M quisqualate was sufficient to establish growth in culture. […] Ten cells lines namely LL1A, LL1T, Nu1, Nu2, MMB3A, MMB3T, 4045A, 4045T, 4046T, 4046A, were successfully generated from at least six independent mice tumors. Given that these mouse melanoma cell lines behave very similarly in culture, data presented herein is of representative cell lines. […] Cytoplasmic staining for Grm1 has also been reported in other cellular systems (Tadokoro, et al. (1999) Proc. Natl. Acad. Sci. USA 96:13801-13806). To verify the melanocytic origin of these cells, co-staining of the cells was performed with Tyrp-1. […]"}}}
{"molecule": "CC(=O)OCOC(=O)CN(CC(=O)OCOC(C)=O)c1ccccc1OCCOc1ccccc1N(CC(=O)OCOC(C)=O)CC(=O)OCOC(C)=O", "note": "[BAPTA-AM]", "values": [{"measurement": "ERK activation by quisqualate", "setting": "[1]; preincubation 30 minutes prior to agonist challenge, in calcium-free media", "value": "completely abolished"}, {"measurement": "ERK activation by quisqualate", "setting": "[1]; preincubation 30 minutes prior to agonist challenge, in the presence of extracellular calcium", "value": "dose-dependent decrease in ERK activation"}]}
{"molecule": "O=C(O)CN(CCOCCOCCN(CC(=O)O)CC(=O)O)CC(=O)O", "note": "[EGTA]", "values": [{"measurement": "ERK activation by quisqualate", "setting": "[1]; chelating extracellular calcium to deplete intracellular calcium", "value": "time-dependent decrease in ERK activation"}]}
{"molecule": "Cc1cc(C(=O)O)ccc1[C@H](N)C(=O)O", "note": "[LY367385]", "values": [{"measurement": "activation of ERK1/2 by quisqualate", "setting": "[1]; melanoma lines pretreated 30 minutes with antagonist (10^−5 M) before agonist challenge", "value": "abrogated"}]}
{"molecule": "N[C@@H](Cn1oc(=O)[nH]c1=O)C(=O)O", "note": "[quisqualate, L-quisqualate]", "values": [{"measurement": "quisqualate concentration sufficient to establish growth in culture", "setting": "melanoma cell lines; based on morphology and growth rate", "value": "10^−5 M"}, {"measurement": "establishment of melanoma cell lines on addition to culture medium", "setting": "melanoma cell lines; culture medium supplemented with geneticin", "value": "enabled the establishment of melanoma cell lines"}, {"measurement": "phosphorylation of ERK1/2", "setting": "[1]; after 5 minutes of tumor cell stimulation", "value": "increase in the phosphorylation of ERK1/2"}, {"measurement": "phosphorylation of ERK1/2", "setting": "[1]; after 15 minutes of stimulation", "value": "reduced to background levels"}]}
{"molecule": "B1", "values": [{"measurement": "ERK activation by Grm1 agonist", "setting": "[1]; transfected melanoma cells, compared to cells transfected with an unrelated siRNA sequence", "value": "inhibited ERK activation"}]}
